Assay results: US5084464A, “Conjugated γ-hydroxybutenolide compounds and antiulcer agents containing the same as an effective ingredient” (Kuraray Company Ltd., priority 1989, dated 1992)

How the values were obtained:
[1] = tested on: HCl-ethanol-induced ulcers generated at the mucosa of the stomach; experiment: Antiulcer Activity (HCl-Ethanol Ulcer); format: in vivo; settings: oral, one hour before HCl-ethanol, rats
Experimental: Antiulcer Activity (HCl-Ethanol Ulcer)
1.5 ml of a 60% aqueous ethanol solution containing 150 mM hydrochloric acid was orally administered to rats. One hour thereafter the rats were sacrificed and the length (mm) of HCl-ethanol-induced ulcers generated at the mucosa of the stomach were measured. Sum of the length of ulcer per animal is defined as ulcer coefficient. Specimens each was orally administered one hour before the HCl-ethanol administration. Inhibition rate was calculated as the ratio of the difference of ulcer coefficients of the control group and specimen-administered group to the ulcer coefficient of the control group.

[2] = Acute Toxicity (oral administration); settings: mouse, in vivo
Experimental: Acute toxicity tests through oral administration were carried out using male ICR-strain mice (5 weeks old).

[3] = Rattus norvegicus, 1 h, read-out: Inhibition Rate

Work on `CN(C)c1ccc(/C=C/C2=CC(=O)OC2O)cc1` (stereo not shown) [(2)] yielded an inhibition in vivo at 2.5 mg/kg [1, 3] of 37.5%.

`O=C1C=C(/C=C/c2cccc(C(=O)c3ccccc3)c2)C(O)O1` (stereo not shown) [(3)] showed an inhibition in vivo at 5 mg/kg [1, 3] of 69.7%.

For `O=C1C=C(/C=C/c2cccc(Cc3cccnc3)c2)C(O)O1` (stereo not shown) [(4)], the inhibition in vivo at 5 mg/kg [1, 3] was 42%.

Compound `O=C1C=C(/C=C/c2cccc3ccccc23)C(O)O1` (stereo not shown) [(5)] has an inhibition in vivo at 2.5 mg/kg [1, 3] of 94%.

With `COc1ccc2cc(/C=C/C3=CC(=O)OC3O)ccc2c1` (stereo not shown) [(6)] the inhibition in vivo at 5 mg/kg [1, 3] was 61.3%.

For `O=C1C=C(/C=C/c2ccco2)C(O)O1` (stereo not shown) [(7)], the inhibition in vivo at 2.5 mg/kg [1, 3] was 96%.

For `O=C1C=C(/C=C/c2cccs2)C(O)O1` (stereo not shown) [(8)], the inhibition in vivo at 2.5 mg/kg [1, 3] was 95.5%.

`O=C1C=C(/C=C/C=C/c2ccccc2)C(O)O1` (stereo not shown) [(9)] showed an inhibition in vivo at 5 mg/kg [1, 3] of 98.6%.

In the case of `O=C1C=C(/C=C/C=C/C=C/c2ccccc2)C(O)O1` (stereo not shown) [(10)], the inhibition in vivo at 5 mg/kg [1, 3] is reported as 61.8%.

Compound `CC(C)=C/C=C/C1=CC(=O)OC1O` (stereo not shown) [Compound (1), 5-hydroxy-4-[4-methyl-1,3-pentadienyl]-2(5H)-furanone] has an inhibition in vivo at 5 mg/kg [1, 3] of 90.6% and an LD50 [2] of at least 2000 mg/kg.

In the case of `CC(=O)c1ccc2c(c1)C(=O)C1(CC1)O2` [Spizofurone, reference compound], the “Inhibition Rate” value ([1]; 100 mg/kg) is reported as 86.6%.

In the case of `CC(=O)CCC=C(C)CCC=C(C)CCC=C(C)CCC=C(C)C` [Teprenone, reference compound], the inhibition in vivo at 25 mg/kg ([1]; Rattus norvegicus, 1 h, 25 mg/kg, read-out: Inhibition Rate) is reported as 48.9%.
